We go through five compounds from ChEMBL document CHEMBL1148931, “New sesterterpenes from the sponge Smenospongia sp” (2004).

Each structure is given as a SMILES string. ≈ marks a conversion by molar mass, not a printed value.

The subject of this assay is K562. The assay can be described thus: Cytotoxicity against human K562 cells. The assay is classed as functional. Particulars: read-out: LC50 (the source's name).
Turning to `CC(=O)O[C@@H](C/C=C(\C)CC/C=C(\C)CC/C=C(\C)CC(=O)CC(C)C)c1ccoc1`, the CC50 is 31.6 µg/mL (≈ 73.7 µM).

Turning to `C/C(=C\CC/C(C)=C/C[C@H](O)c1ccoc1)CC/C=C(\C)CC(=O)CC(C)C`, the CC50 worked out at 3 µg/mL (≈ 7.76 µM). Under `CC(=O)OC[C@]12CCCC(C)(C)[C@@H]1CC[C@@]1(C)[C@@H]3CC=C4C(=O)O[C@@H](OC(C)=O)[C@@H]4[C@@]3(C)CC[C@@H]12` stands 11.2 µg/mL (≈ 23 µM); under `CC(=O)O[C@@H]1OC=C2[C@@H](OC(C)=O)C[C@@H]3[C@](C)(CC[C@H]4[C@@]3(C)CC[C@H]3C(C)(C)CCC[C@@]34CO)[C@H]21`, 0.02 µg/mL (≈ 0.0409 µM); under `CC(=O)OC[C@]12CCCC(C)(C)[C@@H]1CC[C@@]1(C)[C@@H]3CC=C4C(=O)O[C@@H](O)[C@@H]4[C@@]3(C)CC[C@@H]12`, 4.9 µg/mL (≈ 11 µM).
